Measured values from paper PMC9447987, “Long-term memory CD8^+ T cells specific for SARS-CoV-2 in individuals who received the BNT162b2 mRNA vaccine” (Nature Communications, 2022).
Read-outs that look alike come from different tables or passages of the source.

Tests used:
[1] = system: HLA-A*24:02-peptide complexes; assay: Peptide–MHC Complex Dissociation Assay using RMA-S-A2402 cells; type: binding, human; details: for % Mean Fluoresence: Fig.7d; for stability of the HLA-A*24:02-peptide complex (in words): RMA-S-A2402 cells, 10 μM peptide, 0, 1, 2 and 4 h
[2] = system: HLA-A*24:02-restricted CD8+ T cells; type: cell-based, human
HLA-A*24:02 = HLA-A*24:02 (Homo sapiens, UniProt P04439, D101N/D140Y/D185E/E176V/E190D/F33S/G103R/G107R/I119L/I121M/I306V/K335N/L105A/L180Q/L300P/N151K/N90K/Q86E/Q94H/R106L/R138H/R89G/T104I/T345S/V100E/W191G/Y123F); assay: HLA stabilization assay using RMA-S-A2402 cells; type: binding; details: for MFI, HLA-A2402 (APC), representative staining: RMA-S-A2402 cells
[3] = post-incubation 0 hour, replicate 1
[4] = post-incubation 0 hour, replicate 2
[5] = post-incubation 0 hour, replicate 3
[6] = post-incubation 1 hour, replicate 1
[7] = post-incubation 1 hour, replicate 2
[8] = post-incubation 1 hour, replicate 3
[9] = post-incubation 2 hour, replicate 1
[10] = post-incubation 2 hour, replicate 2
[11] = post-incubation 2 hour, replicate 3
[12] = post-incubation 4 hour, replicate 1
[13] = post-incubation 4 hour, replicate 2
[14] = post-incubation 4 hour, replicate 3
[15] = 13 HLA-A*24:02+ individuals, C1R-A2402 pre-pulsed with 1 nM peptide
[16] = Suppl. Fig. 3d (for Fig. 7c), peptide(-) 11.3, 26 °C (Maximum) 24.0
[17] = convalescent donor C2, 45.290 weeks since PCR-confirmed diagnosis, peptide-pulsed C1R-A2402
[18] = convalescent donor C3, 2.430 weeks since PCR-confirmed diagnosis, peptide-pulsed C1R-A2402
[19] = convalescent donor C4, 35.000 weeks since PCR-confirmed diagnosis, peptide-pulsed C1R-A2402
[20] = convalescent donor C5, 41.430 weeks since PCR-confirmed diagnosis, peptide-pulsed C1R-A2402
[21] = convalescent donor C6, 20.000 weeks since PCR-confirmed diagnosis, peptide-pulsed C1R-A2402
[22] = convalescent donor C7, 21.710 weeks since PCR-confirmed diagnosis, peptide-pulsed C1R-A2402
[23] = convalescent donor C8, 47.860 weeks since PCR-confirmed diagnosis, peptide-pulsed C1R-A2402
[24] = convalescent donor C9, 21.860 weeks since PCR-confirmed diagnosis, peptide-pulsed C1R-A2402
[25] = convalescent donor C10, 24.570 weeks since PCR-confirmed diagnosis, peptide-pulsed C1R-A2402
[26] = convalescent donor C11, 24.290 weeks since PCR-confirmed diagnosis, peptide-pulsed C1R-A2402
[27] = vaccinated donor V1, 19.000 weeks since 2nd dose, C1R-A2402 pre-pulsed with 1 μM peptide
[28] = vaccinated donor V2, 9.570 weeks since 2nd dose, C1R-A2402 pre-pulsed with 1 μM peptide
[29] = vaccinated donor V3, 8.860 weeks since 2nd dose, C1R-A2402 pre-pulsed with 1 μM peptide
[30] = vaccinated donor V4, 10.430 weeks since 2nd dose, C1R-A2402 pre-pulsed with 1 μM peptide
[31] = vaccinated donor V5, 10.570 weeks since 2nd dose, C1R-A2402 pre-pulsed with 1 μM peptide
[32] = vaccinated donor V6, 9.570 weeks since 2nd dose, C1R-A2402 pre-pulsed with 1 μM peptide
[33] = vaccinated donor V7, 10.140 weeks since 2nd dose, C1R-A2402 pre-pulsed with 1 μM peptide
[34] = vaccinated donor V8, 9.860 weeks since 2nd dose, C1R-A2402 pre-pulsed with 1 μM peptide
[35] = vaccinated donor V9, 20.570 weeks since 2nd dose, C1R-A2402 pre-pulsed with 1 μM peptide
[36] = vaccinated donor V10, 2.000 weeks since 2nd dose, C1R-A2402 pre-pulsed with 1 μM peptide
[37] = vaccinated donor V11, 1.430 weeks since 2nd dose, C1R-A2402 pre-pulsed with 1 μM peptide
[38] = vaccinated donor V12, 1.000 weeks since 2nd dose, C1R-A2402 pre-pulsed with 1 μM peptide
[39] = vaccinated donor V13, 9.000 weeks since 2nd dose, C1R-A2402 pre-pulsed with 1 μM peptide
[40] = vaccinated donor V14, 2.000 weeks since 2nd dose, C1R-A2402 pre-pulsed with 1 μM peptide
[41] = vaccinated donor V15, 6.860 weeks since 2nd dose, C1R-A2402 pre-pulsed with 1 μM peptide
[42] = vaccinated donor V16, 8.860 weeks since 2nd dose, C1R-A2402 pre-pulsed with 1 μM peptide
[43] = vaccinated donor V17, 4.140 weeks since 2nd dose, C1R-A2402 pre-pulsed with 1 μM peptide
[44] = Suppl. Fig. 3b (for Fig. 4a, 4b), peptide(-) 14.8, 26 °C (Maximum) 32.7

Sequence: MYVKWPWYV [HKU1]
- % Mean Fluoresence [1, 3]: 100%
- % Mean Fluoresence [1, 4]: 100%
- % Mean Fluoresence [1, 5]: 100%
- % Mean Fluoresence [1, 6]: 69.2%
- % Mean Fluoresence [1, 7]: 72.5%
- % Mean Fluoresence [1, 8]: 68.4%
- % Mean Fluoresence [1, 9]: 38.6%
- % Mean Fluoresence [1, 10]: 43%
- % Mean Fluoresence [1, 11]: 37.4%
- % Mean Fluoresence [1, 12]: 12.8%
- % Mean Fluoresence [1, 13]: 14%
- % Mean Fluoresence [1, 14]: 10%
- stability of the HLA-A*24:02-peptide complex (in words) [1]: weaker than that of the HLA-A*24:02-S-QI9 peptide complex
- sensitivity of S-QI9-specific T cells for the peptide compared with the SARS-CoV-2 S-QI9 epitope (in words) [2]: higher sensitivity
- number of S-QI9-specific T cell populations that effectively recognized the peptide [2, 15]: 13
- MFI, HLA-A2402 (APC), representative staining (HLA-A*24:02; [16]): 49.8
- affinity for HLA-A*24:02, times weaker than that of S-QI9 (HLA-A*24:02; approximately, peptide 0.03 to 10 μM): 10–30 times

Sequence: NYIKWPWWV [NL63]
- % Mean Fluoresence [1, 3]: 100%
- % Mean Fluoresence [1, 4]: 100%
- % Mean Fluoresence [1, 5]: 100%
- % Mean Fluoresence [1, 6]: 18.2%
- % Mean Fluoresence [1, 7]: 44%
- % Mean Fluoresence [1, 8]: 7.4%
- % Mean Fluoresence [1, 9]: -22.6%
- % Mean Fluoresence [1, 10]: 35.4%
- % Mean Fluoresence [1, 11]: -0.6%
- % Mean Fluoresence [1, 12]: 18.3%
- % Mean Fluoresence [1, 13]: -7.8%
- % Mean Fluoresence [1, 14]: 2%
- stability of the HLA-A*24:02-peptide complex (in words) [1]: substantially weaker
- sensitivity of S-QI9-specific T cells for the peptide compared with the SARS-CoV-2 S-QI9 epitope (in words) [2]: much lower sensitivity
- number of individuals whose S-QI9-specific T cells moderately recognized the peptide [2, 15]: 7
- number of individuals whose S-QI9-specific T cells uniformly recognized variant peptide and S-QI9 [2, 15]: 2
- number of individuals whose S-QI9-specific bulk T cells exhibited no or very weak recognition [2, 15]: 4
- affinity for HLA-A*24:02 (in words) (HLA-A*24:02): substantially weaker
- MFI, HLA-A2402 (APC), representative staining (HLA-A*24:02; [16]): 16.2

Sequence: TYIKWPWWV [229E]
- % Mean Fluoresence [1, 3]: 100%
- % Mean Fluoresence [1, 4]: 100%
- % Mean Fluoresence [1, 5]: 100%
- % Mean Fluoresence [1, 6]: 44.6%
- % Mean Fluoresence [1, 7]: 48.7%
- % Mean Fluoresence [1, 8]: 47.1%
- % Mean Fluoresence [1, 9]: 19.2%
- % Mean Fluoresence [1, 10]: 17%
- % Mean Fluoresence [1, 11]: 16.5%
- % Mean Fluoresence [1, 12]: -1.1%
- % Mean Fluoresence [1, 13]: -0.2%
- % Mean Fluoresence [1, 14]: -1.9%
- stability of the HLA-A*24:02-peptide complex (in words) [1]: weaker than that of the HLA-A*24:02-HKU1 or HLA-A*24:02-OC43 peptide complexes
- sensitivity of S-QI9-specific T cells for the peptide compared with the SARS-CoV-2 S-QI9 epitope (in words) [2]: much lower sensitivity
- number of individuals whose S-QI9-specific T cells moderately recognized the peptide [2, 15]: 7
- number of individuals whose S-QI9-specific T cells uniformly recognized variant peptide and S-QI9 [2, 15]: 2
- number of individuals whose S-QI9-specific bulk T cells exhibited no or very weak recognition [2, 15]: 4
- MFI, HLA-A2402 (APC), representative staining (HLA-A*24:02; [16]): 41.6

Sequence: YYHKNNKSW [S-YW9]
- IFNg-producing cells among CD8 T cells (%) [2, 17]: 0.653%
- IFNg-producing cells among CD8 T cells (%) [2, 18]: 0.000%
- IFNg-producing cells among CD8 T cells (%) [2, 19]: 0.000%
- IFNg-producing cells among CD8 T cells (%) [2, 20]: 0.000%
- IFNg-producing cells among CD8 T cells (%) [2, 21]: 0.000%
- IFNg-producing cells among CD8 T cells (%) [2, 22]: 0.140%
- IFNg-producing cells among CD8 T cells (%) [2, 23]: 0.310%
- IFNg-producing cells among CD8 T cells (%) [2, 24]: 0.000%
- IFNg-producing cells among CD8 T cells (%) [2, 25]: 0.000%
- IFNg-producing cells among CD8 T cells (%) [2, 26]: 0.550%
- IFNg-producing cells among CD8 T cells (%) [2, 27]: 0.268%
- IFNg-producing cells among CD8 T cells (%) [2, 28]: 0%
- IFNg-producing cells among CD8 T cells (%) [2, 29]: 0.343%
- IFNg-producing cells among CD8 T cells (%) [2, 30]: 0%
- IFNg-producing cells among CD8 T cells (%) [2, 31]: 0.139%
- IFNg-producing cells among CD8 T cells (%) [2, 32]: 0.061%
- IFNg-producing cells among CD8 T cells (%) [2, 33]: 0.182%
- IFNg-producing cells among CD8 T cells (%) [2, 34]: 0.035%
- IFNg-producing cells among CD8 T cells (%) [2, 35]: 0.232%
- IFNg-producing cells among CD8 T cells (%) [2, 36]: 0%
- IFNg-producing cells among CD8 T cells (%) [2, 37]: 0.769%
- IFNg-producing cells among CD8 T cells (%) [2, 38]: 0%
- IFNg-producing cells among CD8 T cells (%) [2, 39]: 0%
- IFNg-producing cells among CD8 T cells (%) [2, 40]: 0%
- IFNg-producing cells among CD8 T cells (%) [2, 41]: 0.709%
- IFNg-producing cells among CD8 T cells (%) [2, 42]: 0.019%
- IFNg-producing cells among CD8 T cells (%) [2, 43]: 0.154%
- MFI, HLA-A2402 (APC), representative staining (HLA-A*24:02; [44]): 10.2
- binding to HLA-A*24:02 (in words) (HLA-A*24:02; […], 16 peptides tested at 100 μM): did not bind

Sequence: YYVGYLQPRTF [S-YF11]
- IFNg-producing cells among CD8 T cells (%) [2, 17]: 0.461%
- IFNg-producing cells among CD8 T cells (%) [2, 18]: 0.120%
- IFNg-producing cells among CD8 T cells (%) [2, 19]: 0.300%
- IFNg-producing cells among CD8 T cells (%) [2, 20]: 0.738%
- IFNg-producing cells among CD8 T cells (%) [2, 21]: 0.200%
- IFNg-producing cells among CD8 T cells (%) [2, 22]: 0.450%
- IFNg-producing cells among CD8 T cells (%) [2, 23]: 0.930%
- IFNg-producing cells among CD8 T cells (%) [2, 24]: 0.000%
- IFNg-producing cells among CD8 T cells (%) [2, 25]: 0.090%
- IFNg-producing cells among CD8 T cells (%) [2, 26]: 0.000%
- IFNg-producing cells among CD8 T cells (%) [2, 27]: 0.469%
- IFNg-producing cells among CD8 T cells (%) [2, 28]: 0.861%
- IFNg-producing cells among CD8 T cells (%) [2, 29]: 0.031%
- IFNg-producing cells among CD8 T cells (%) [2, 30]: 0%
- IFNg-producing cells among CD8 T cells (%) [2, 31]: 0%
- IFNg-producing cells among CD8 T cells (%) [2, 32]: 0.019%
- IFNg-producing cells among CD8 T cells (%) [2, 33]: 0%
- IFNg-producing cells among CD8 T cells (%) [2, 34]: 0%
- IFNg-producing cells among CD8 T cells (%) [2, 35]: 0%
- IFNg-producing cells among CD8 T cells (%) [2, 36]: 0%
- IFNg-producing cells among CD8 T cells (%) [2, 37]: 0%
- IFNg-producing cells among CD8 T cells (%) [2, 38]: 0%
- IFNg-producing cells among CD8 T cells (%) [2, 39]: 0.015%
- IFNg-producing cells among CD8 T cells (%) [2, 40]: 0%
- IFNg-producing cells among CD8 T cells (%) [2, 41]: 0.234%
- IFNg-producing cells among CD8 T cells (%) [2, 42]: 0.141%
- IFNg-producing cells among CD8 T cells (%) [2, 43]: 0.134%
- MFI, HLA-A2402 (APC), representative staining (HLA-A*24:02; [44]): 26.7
